From ChEMBL document CHEMBL1201862, “PubChem BioAssay data set” (2004)
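Grown in 96-well plates, cells were treated for 48 hours with each compound at five concentrations. Insufficient inhibition: endpoint recorded as highest concentration tested. GI50 = concentration required for 50% inhibition of growth.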 Activity calls are given as the source filed them. Rule as the data show it: active = GI50 up to about 1.1 µM and inactive = higher.

Columns and labels:
Assay in all cases: DTP human tumour cell line panel, 48 h
786-0 = test system: 786-0
A498 = test system: A498
A549 = test system: A549
ACHN = test system: ACHN
CCRF-CEM = test system: CCRF-CEM
COLO 205 = test system: COLO 205
DLD-1 = test system: DLD-1
DMS-114 = test system: DMS-114
DMS-273 = test system: DMS-273
EKVX = test system: EKVX
HCC 2998 = test system: HCC 2998
HCT-116 = test system: HCT-116
HL-60 = test system: HL-60
HOP-18 = test system: HOP-18
HOP-62 = test system: HOP-62
HOP-92 = test system: HOP-92
HT-29 = test system: HT-29
IGROV-1 = test system: IGROV-1
K562 = test system: K562
KM-20L2 = test system: KM-20L2
KM12 = test system: KM12
LOX IMVI = test system: LOX IMVI
LXFL 529 = test system: LXFL 529
M19-MEL = test system: M19-MEL
MOLT-4 = test system: MOLT-4
Malme-3M = test system: Malme-3M
NCI-H23 = test system: NCI-H23
NCI-H460 = test system: NCI-H460
OVCAR-3 = test system: OVCAR-3
OVCAR-5 = test system: OVCAR-5
OVCAR-8 = test system: OVCAR-8
RPMI-8226 = test system: RPMI-8226
RXF 393 = test system: RXF 393
SF-268 = test system: SF-268
SF-295 = test system: SF-295
SK-MEL-28 = test system: SK-MEL-28
SK-MEL-2 = test system: SK-MEL-2
SK-OV-3 = test system: SK-OV-3
SNB-19 = test system: SNB-19
SNB-75 = test system: SNB-75
SNB-78 = test system: SNB-78
SW-620 = test system: SW-620
TK-10 = test system: TK-10
U-251 = test system: U-251
UACC-257 = test system: UACC-257
UO-31 = test system: UO-31
XF498 = test system: XF498
HCT-15 = test system: HCT-15
M14 = test system: M14
NCI-H226 = test system: NCI-H226
NCI-H522 = test system: NCI-H522
OVCAR-4 = test system: OVCAR-4
SF-539 = test system: SF-539
SK-MEL-5 = test system: SK-MEL-5
SN12C = test system: SN12C
SR = test system: SR
UACC-62 = test system: UACC-62
CAKI-1 = test system: CAKI-1

Brc1ccc2c(c1)C1C(CO2)C(c2ccccc2)=NN1c1ccccc1 (stereo unspecified)
GI50 (786-0): > 100 µM (inactive) | GI50 (A498): > 100 µM (inactive) | GI50 (A549): > 100 µM (inactive) | GI50 (ACHN): > 100 µM (inactive) | GI50 (CCRF-CEM): > 100 µM (inactive) | GI50 (COLO 205): > 100 µM (inactive) | GI50 (DLD-1): > 100 µM (inactive) | GI50 (DMS-114): > 100 µM (inactive) | GI50 (DMS-273): > 100 µM (inactive) | GI50 (EKVX): > 100 µM (inactive) | GI50 (HCC 2998): > 100 µM (inactive) | GI50 (HCT-116): > 100 µM (inactive) | GI50 (HL-60): 90.8 µM (inactive) | GI50 (HOP-18): 60 µM (inactive) | GI50 (HOP-62): > 100 µM (inactive) | GI50 (HOP-92): 57.3 µM (inactive) | GI50 (HT-29): 54.2 µM (inactive) | GI50 (IGROV-1): > 100 µM (inactive) | GI50 (K562): 78.9 µM (inactive) | GI50 (KM-20L2): > 100 µM (inactive) | GI50 (KM12): > 100 µM (inactive) | GI50 (LOX IMVI): > 100 µM (inactive) | GI50 (LXFL 529): > 100 µM (inactive) | GI50 (M19-MEL): > 100 µM (inactive) | GI50 (MOLT-4): > 100 µM (inactive) | GI50 (Malme-3M): > 100 µM (inactive) | GI50 (NCI-H23): > 100 µM (inactive) | GI50 (NCI-H460): > 100 µM (inactive) | GI50 (OVCAR-3): > 100 µM (inactive) | GI50 (OVCAR-5): > 100 µM (inactive) | GI50 (OVCAR-8): > 100 µM (inactive) | GI50 (RPMI-8226): 77.6 µM (inactive) | GI50 (RXF 393): > 100 µM (inactive) | GI50 (SF-268): > 100 µM (inactive) | GI50 (SF-295): > 100 µM (inactive) | GI50 (SK-MEL-28): > 100 µM (inactive) | GI50 (SK-MEL-2): > 100 µM (inactive) | GI50 (SK-OV-3): > 100 µM (inactive) | GI50 (SNB-19): > 100 µM (inactive) | GI50 (SNB-75): > 100 µM (inactive) | GI50 (SNB-78): > 100 µM (inactive) | GI50 (SW-620): > 100 µM (inactive) | GI50 (TK-10): > 100 µM (inactive) | GI50 (U-251): > 100 µM (inactive) | GI50 (UACC-257): > 100 µM (inactive) | GI50 (UO-31): > 100 µM (inactive) | GI50 (XF498): > 100 µM (inactive)

CCCCc1c2c(nc3c1CCCC3O)/C(=C/c1ccccc1)CCC2 (stereo unspecified)
GI50 (786-0): 22.3 µM (inactive) | GI50 (A498): 54.1 µM (inactive) | GI50 (A549): 49.5 µM (inactive) | GI50 (ACHN): 34.8 µM (inactive) | GI50 (CCRF-CEM): 15.9 µM (inactive) | GI50 (COLO 205): 17.9 µM (inactive) | GI50 (DMS-114): 22.9 µM (inactive) | GI50 (DMS-273): 20.7 µM (inactive) | GI50 (EKVX): 29.6 µM (inactive) | GI50 (HCC 2998): 9.84 µM (inactive) | GI50 (HCT-116): 36.6 µM (inactive) | GI50 (HCT-15): 16 µM | GI50 (HL-60): 17.3 µM (inactive) | GI50 (HOP-18): 24.4 µM (inactive) | GI50 (HOP-62): 36.5 µM (inactive) | GI50 (HOP-92): 38.7 µM (inactive) | GI50 (HT-29): 22.1 µM (inactive) | GI50 (IGROV-1): 45.8 µM (inactive) | GI50 (K562): 11.4 µM (inactive) | GI50 (KM-20L2): 35.2 µM (inactive) | GI50 (KM12): 18.7 µM (inactive) | GI50 (LOX IMVI): 19.7 µM (inactive) | GI50 (LXFL 529): 34.1 µM (inactive) | GI50 (M14): 23.1 µM (inactive) | GI50 (M19-MEL): 23.1 µM (inactive) | GI50 (MOLT-4): 11.6 µM (inactive) | GI50 (Malme-3M): 20.2 µM (inactive) | GI50 (NCI-H226): 26.1 µM (inactive) | GI50 (NCI-H23): 27.3 µM (inactive) | GI50 (NCI-H460): 17.1 µM (inactive) | GI50 (NCI-H522): 21.7 µM (inactive) | GI50 (OVCAR-3): 18.7 µM (inactive) | GI50 (OVCAR-4): 63.7 µM (inactive) | GI50 (OVCAR-5): 32.8 µM (inactive) | GI50 (OVCAR-8): 32 µM (inactive) | GI50 (RPMI-8226): 16.8 µM (inactive) | GI50 (RXF 393): 39.9 µM (inactive) | GI50 (SF-268): 31.3 µM (inactive) | GI50 (SF-295): 42.3 µM (inactive) | GI50 (SF-539): 28.1 µM (inactive) | GI50 (SK-MEL-28): 33.5 µM (inactive) | GI50 (SK-MEL-2): 24.8 µM (inactive) | GI50 (SK-MEL-5): 21.7 µM (inactive) | GI50 (SK-OV-3): 38.5 µM (inactive) | GI50 (SN12C): 23.2 µM (inactive) | GI50 (SNB-19): 43.1 µM (inactive) | GI50 (SNB-75): 35.3 µM (inactive) | GI50 (SNB-78): 56 µM (inactive) | GI50 (SR): 14 µM (inactive) | GI50 (SW-620): 26.2 µM (inactive) | GI50 (TK-10): 26.9 µM (inactive) | GI50 (U-251): 28 µM (inactive) | GI50 (UACC-257): 30 µM (inactive) | GI50 (UACC-62): 33.8 µM (inactive) | GI50 (UO-31): 42.9 µM (inactive) | GI50 (XF498): 13.2 µM (inactive)

CN(C)CCN(C)CCC(=O)/C=C/c1ccccc1
GI50 (786-0): 15.6 µM (inactive) | GI50 (A498): > 89.9 µM (inactive) | GI50 (A549): > 71.6 µM (inactive) | GI50 (ACHN): 29.5 µM (inactive) | GI50 (CAKI-1): 22.7 µM (inactive) | GI50 (CCRF-CEM): 3.48 µM (inactive) | GI50 (COLO 205): 18.7 µM (inactive) | GI50 (DLD-1): 19.5 µM (inactive) | GI50 (DMS-114): 30.2 µM (inactive) | GI50 (DMS-273): 17.4 µM (inactive) | GI50 (EKVX): 32.1 µM (inactive) | GI50 (HCC 2998): > 45.5 µM (inactive) | GI50 (HCT-116): 17.1 µM (inactive) | GI50 (HCT-15): 21.8 µM | GI50 (HL-60): 16.4 µM (inactive) | GI50 (HOP-18): > 100 µM (inactive) | GI50 (HOP-62): > 100 µM (inactive) | GI50 (HOP-92): 25.5 µM (inactive) | GI50 (HT-29): 20.8 µM (inactive) | GI50 (IGROV-1): > 47.9 µM (inactive) | GI50 (K562): 12.7 µM (inactive) | GI50 (KM-20L2): 56.2 µM (inactive) | GI50 (KM12): 20.5 µM (inactive) | GI50 (LOX IMVI): 12.6 µM (inactive) | GI50 (LXFL 529): 17.7 µM (inactive) | GI50 (M14): 20.9 µM (inactive) | GI50 (M19-MEL): 20.2 µM (inactive) | GI50 (MOLT-4): 7.26 µM (inactive) | GI50 (Malme-3M): 18.4 µM (inactive) | GI50 (NCI-H226): > 48.1 µM (inactive) | GI50 (NCI-H23): 27.1 µM (inactive) | GI50 (NCI-H460): > 100 µM (inactive) | GI50 (NCI-H522): 4.02 µM (inactive) | GI50 (OVCAR-3): 27.7 µM (inactive) | GI50 (OVCAR-4): 38.2 µM (inactive) | GI50 (OVCAR-5): > 60.1 µM (inactive) | GI50 (OVCAR-8): 21.2 µM (inactive) | GI50 (RPMI-8226): 2.16 µM (inactive) | GI50 (RXF 393): 21.3 µM (inactive) | GI50 (SF-268): 30.5 µM (inactive) | GI50 (SF-295): > 40.4 µM (inactive) | GI50 (SF-539): 19.1 µM (inactive) | GI50 (SK-MEL-28): 20.1 µM (inactive) | GI50 (SK-MEL-2): 39.2 µM (inactive) | GI50 (SK-MEL-5): > 44.5 µM (inactive) | GI50 (SK-OV-3): > 100 µM (inactive) | GI50 (SN12C): 19 µM (inactive) | GI50 (SNB-19): > 93.3 µM (inactive) | GI50 (SNB-75): > 41.5 µM (inactive) | GI50 (SNB-78): 31 µM (inactive) | GI50 (SR): 7 µM (inactive) | GI50 (SW-620): 18.5 µM (inactive) | GI50 (TK-10): 25.9 µM (inactive) | GI50 (U-251): 57.7 µM (inactive) | GI50 (UACC-257): 22.2 µM (inactive) | GI50 (UACC-62): 25.4 µM (inactive) | GI50 (UO-31): > 64.7 µM (inactive) | GI50 (XF498): 22.2 µM (inactive)
